{"source": "paper PMC6680932", "about": "“Structure–Antioxidant–Antiproliferative Activity Relationships of Natural C7 and C7–C8 Hydroxylated Flavones and Flavanones” (Antioxidants, 2019)", "assay": "FRAP (ferric ion reducing antioxidant power) assay", "settings": "10 min, 593 nm; mean ± SD", "experimental": "The antioxidant capacity of flavonoids was measured in three separate tests: ABTS, DPPH, and ferric ion reducing antioxidant power (FRAP) assays (ABTS, DPPH, and FRAP reagents from Sigma-Aldrich). All tested compounds were dissolved in DMSO. All determinations were performed in triplicate. Standard curves were prepared for all assays using different concentrations of Trolox (6-hydroxy-2,5,7,8-tetramethylchroman-2-carboxylic acid) (Sigma-Aldrich). Trolox is a water-soluble analogue of vitamin E with high antioxidant activity, commonly used as a control and a reference in studies of antioxidant activity. The results were expressed as the equivalent of μmol Trolox per μmol of the test compound. The absorbance was measured using a UV-2401 PC spectrophotometer (Shimadzu, Kyoto, Japan). Concentrations of the tested samples were in the range from 50 µg/mL to 10 mg/mL.\nThe FRAP method is based on measuring the ability of antioxidants to reduce ferric 2,4,6-tris(2-pyridyl)-1,3,5-triazine [Fe(III)-TPTZ] in the blue colored ferrous form, which absorbs light at λ = 593 nm. The Fe(III)-TPTZ reagent was prepared as a mixture of acetate buffer (pH 3.6), 10 mM TPTZ in 40 mM HCl, and 20 mM FeCl3 in the ratio of 10:1:1 (v/v/v). The FRAP reagent was freshly prepared before each experiment. The samples (0.1 mL) were mixed in polystyrene cuvettes with 3 mL of ferric complex and 0.9 mL of distilled water. The absorbance was measured after 10 min at λ = 593 nm."}
{"compound": "O=c1cc(-c2ccc(O)cc2)oc2c(O)c(O)cc(O)c12", "note": "[Compound 10, 8-hydroxyapigenin]", "values": [{"measurement": "TEAC FRAP", "value": "7.824 ± 0.657 µmol trolox per µmol of tested"}]}
